The test system of series [1] is Mabs 19977R. Conditions: 96 h. The method, then:
(§1) In order to determine effects on Mabs viability, microdilution antimicrobial assays were performed in MHB.

Series [2] deals with Mabs 19977S. The note with it: purified peptide, MHB with EDTA (100 μM), 96 h, 37° C. The method, then:
as §1

The test system of series [3] is human red blood cell (hRBC). Briefly: Human red blood cell (hRBC) hemolytic assay. It counts as cell-based. The method, then:
To determine if the purified, Mabs inhibitory peptides were toxic, human red blood cell (hRBC) hemolytic assays were performed. Peptides (at 1×, 2×, and 4× their respective Mabs 19977S MICs) were added to 4% hRBC in saline and statically incubated for 1 h or 18 h at 37° C. […] Following incubation, the peptide-hRBC mixtures and the 1% Triton X-100 positive controls were centrifuged for 1 min at 1,000×g to pellet the intact hRBC. The supernatant for each experimental mixture and control was removed, and OD475 measurements were recorded to determine the percentage of lysed hRBC. The percentage of hemolytic activity was normalized by comparing the supernatant absorbance of all conditions tested to an equivalent number of hRBC lysed with 1% Triton X-100 (Eq. 1) (50).

Series [4] concerns Mabs 19977R (rough morphotype). Nature of the series: Growth inhibition screen with unpurified peptides in M7H9, MHB, CAMHB. Conditions: unpurified peptide 100 μM. It counts as cell-based, Mycobacterium abscessus. The method, then: (§2) Mabs ATCC 19977 smooth morphotype (Mabs 19977S) cells were cultured at 37° C. in Middlebrook 7H9 supplemented with albumin, dextrose, and catalase (ADC) (10%), Tween 80 (0.05%), and glycerol (0.2%) (herein referred to as M7H9). Mabs 19977S was exposed to clarithromycin (8 μg/ml) in M7H9 for 24 h at 37° C., subjected to serial dilutions and plated on Middlebrook 7H10 agar supplemented with oleic acid, albumin, dextrose, and catalase (OADC) (herein referred to as M7H10). After 5 d incubation at 37° C., a single, isolated colony displaying a rough morphotype (Mabs 19977R) was detected, grown, and stored at −70° C. Mabs 19977S and Mabs 19977R were grown for approximately 32 h at 37° C., diluted 1:100 in fresh, pre-warmed M7H9, and grown for an additional 14 h until the cultures reached early-to-mid-logarithmic phase (OD600=0.2-0.3).
(§3) Bacteria grown in M7H9, MHB, and cation-adjusted MHB (CAMHB) were used to identify unpurified peptides with inhibitory activity against Mabs 19977S and Mabs 19977R. Peptides (50-65% purity) were synthesized by Sigma Aldrich (St. Louis, Mo.) PEPscreen Custom Peptide Libraries. Mabs ATCC 19977S and ATCC 19977R mid-logarithmic phase cultures were centrifuged (3,715×g) for 2 min, washed in pre-warmed M7H9, re-suspended in M7H9, MHB, or CAMHB, and diluted to 10^6 CFU/ml. In a 96-well polystyrene microtiter plate, media (M7H9, MHB, or CAMHB), unpurified peptides (100 μM or 10 μM), ethylenediaminetetraacetic acid (EDTA) (100 μM), and cells (Mabs 19977S or Mabs 19977R) (10^5 CFU/ml) were added. EDTA was added to determine if metal ion chelation would alter peptide activity. Clarithromycin (4 μg/ml) was used as an antibiotic positive control. The 96-well microtiter plates were statically incubated at 37° C. for 72 h. The OD600 was measured every 24 h using a SpectraMax M2 microplate reader (Molecular Devices, San Jose, Calif., USA). Peptides that reduced Mabs growth by ≥50%, when compared to the growth control OD600, were considered active.
(§4) In culture medium with cation supplementation (CAMHB), ASU2060 (100 μM) had activity against both morphotypes when EDTA was added (FIG. 2F). […] There were no peptides with inhibitory activity in CAMHB without EDTA (FIG. 2E).

The subject of series [5] is Mabs 19977S (Mabs ATCC 19977 smooth morphotype). The description is as above. Format: cell-based, Mycobacterium abscessus. The note with it: unpurified peptide 100 μM. The method, then:
as §2, §3, §4

In series [6] the test system is E. coli clinical isolates. An excerpt: (approved by Mayo Clinic Biospecimen Subcommittee BIO00015462).
Series [7] concerns E. coli ATCC 25922. It counts as cell-based, Escherichia coli. Conditions: ATCC 25922, 22 h. As for the experimental part: Samples were serially diluted in MHB to ˜10^5 CFU/ml and added to a 96-well polystyrene plate prepared with ASU2060 (128-4 μM). After incubation for 22 h at 37° C., the OD600 was measured using a SpectraMax M2 microplate reader (Molecular Devices, San Jose, Calif., USA). Values were normalized to the medium blank (MHB) and E. coli (ATCC 25922) treated with nitrofurantoin at 64 μM.

The mark [8] stands for this setting: purified peptide, MHB with EDTA (100 μM), 37° C.

Values after ≈ are worked out from the molar mass of the structure shown. Where two headings read alike, the source gives them in different places. Peptide text beside a SMILES is read from it.

What is called IC50 is the concentration that gives 50% inhibition. As usually defined, the MIC is the smallest concentration in the dilution series that meets the test's criterion for growth inhibition.

Molecule `CC(C)C[C@@H](NC(=O)[C@@H](C)NC(=O)[C@H](CO)NC(=O)[C@@H](CCCCN)NC(=O)[C@@H](CCCNC(=N)N)NC(=O)[C@@H](CCCNC(=N)N)NC(=O)[C@H](Cc1ccccc1)NC(=O)[C@@H](CC(C)C)NC(=O)[C@H](CC(N)=O)NC(=O)[C@H](Cc1c[nH]cn1)NC(=O)[C@@H]1CCCN1C(=O)[C@H](C)NC(=O)[C@H](CO)NC(=O)[C@@H]1CCCN1C(=O)CNC(=O)[C@@H](NC(=O)[C@H](N)CCCNC(=N)N)C(C)C)C(N)=O` [ASU2019] (HELM PEPTIDE1{[dR].V.G.P.S.A.P.H.N.[dL].F.[dR].[dR].[dK].S.[dA].[dL].[am]}$$$$V2.0; N-terminus and C-terminus assumed) registered an IC50 in series [1] of 76 to 82 µM. This molecule also displayed an MIC in series [2] of 256 µM (≈ 488 µg/mL). In addition, the “relative hRBC toxicity among the six peptides” value in series [3] is “the most toxicity”.

As for `CC(C)[C@H](NC(=O)[C@@H](CCCCN)NC(=O)[C@H](C)NC(=O)[C@@H](C)NC(=O)[C@@H](CCCCN)NC(=O)[C@H](CO)NC(=O)[C@@H](CCCNC(=N)N)NC(=O)CNC(=O)[C@H](CC(N)=O)NC(=O)[C@H](Cc1ccccc1)NC(=O)[C@@H](N)CCC(N)=O)C(=O)N[C@@H](CC(N)=O)C(=O)N[C@@H](Cc1ccccc1)C(=O)N[C@H](Cc1c[nH]c2ccccc12)C(=O)N[C@H](CCCNC(=N)N)C(=O)N[C@H](CCCCN)C(=O)N[C@H](C)C(=O)O` [ASU2001, QFNGrSkaAkVNFwrka] (HELM PEPTIDE1{Q.F.N.G.[dR].S.[dK].[dA].A.[dK].V.N.F.[dW].[dR].[dK].[dA]}$$$$V2.0), the “activity (growth reduced by ≥50% vs growth control OD600)” value in series [4] (M7H9, with EDTA (100 μM)) is reported as “exhibited activity”; in series [4] (M7H9, without EDTA) it was “exhibited activity”; in series [4] (MHB, with EDTA) it was “maintained activity”; in series [5] (M7H9, with EDTA (100 μM)), “exhibited activity”; in series [5] (MHB, with EDTA) it was “maintained activity”.

As for Triton X-100 [reference compound], the “hRBC lysis by positive control” value in series [3] (Triton X-100 1%, 4% hRBC) is “complete hRBC lysis”.

`CC(C)C[C@@H](NC(=O)[C@@H](C)NC(=O)CNC(=O)[C@@H](CC(C)C)NC(=O)[C@@H](CCCCN)NC(=O)[C@@H](CCCNC(=N)N)NC(=O)[C@@H](CCCNC(=N)N)NC(=O)[C@H](CC(N)=O)NC(=O)[C@H](Cc1ccc(O)cc1)NC(=O)[C@@H](CCCNC(=N)N)NC(=O)[C@H](C)NC(=O)[C@H](CO)NC(=O)[C@@H](CCCNC(=N)N)NC(=O)CNC(=O)[C@@H](N)Cc1ccc(O)cc1)C(=O)N[C@@H](CO)C(=O)NCC(=O)O` [ASU2059, YGrSArYNrrklGalSG] (HELM PEPTIDE1{Y.G.[dR].S.A.[dR].Y.N.[dR].[dR].[dK].[dL].G.[dA].[dL].S.G}$$$$V2.0): the “activity (growth reduced by ≥50% vs growth control OD600)” value in series [4] (M7H9, with EDTA (100 μM)) is reported as “exhibited activity”; in series [4] (MHB, with EDTA), “maintained activity”; in series [5] (M7H9, with EDTA (100 μM)), “exhibited activity”; in series [5] (MHB, with EDTA), “maintained activity”.

As to `CC(C)C[C@@H](NC(=O)CNC(=O)[C@@H](Cc1c[nH]c2ccccc12)NC(=O)[C@@H](CCCNC(=N)N)NC(=O)[C@@H](N)CCC(N)=O)C(=O)N[C@@H](CO)C(=O)N[C@H](CC(C)C)C(=O)N[C@@H](C)C(=O)N1CCC[C@H]1C(=O)N[C@@H](Cc1ccc(O)cc1)C(=O)N[C@H](CCCCN)C(=O)N[C@@H](CC(N)=O)C(=O)N[C@@H](Cc1ccccc1)C(=O)N[C@H](CCCNC(=N)N)C(=O)N[C@H](CCCNC(=N)N)C(=O)N[C@H](CC(C)C)C(=O)N[C@@H](CO)C(N)=O` [ASU2056, QrwGlSlAPYkNFrrlS] (HELM PEPTIDE1{Q.[dR].[dW].G.[dL].S.[dL].A.P.Y.[dK].N.F.[dR].[dR].[dL].S.[am]}$$$$V2.0; N-terminus and C-terminus assumed), the IC50 in series [1] (setting [8]) turned out to be 45 µM. This molecule yielded an MIC in series [2] of 32 µM (≈ 66.9 µg/mL). In series [3], the “relative hRBC toxicity among the six peptides” value is “the least toxicity”.

Take `CC(C)C[C@@H](NC(=O)[C@@H](C)NC(=O)[C@@H](CCCCN)NC(=O)[C@@H](CCCNC(=N)N)NC(=O)[C@H](Cc1ccccc1)NC(=O)[C@H](CCC(N)=O)NC(=O)[C@H](CC(N)=O)NC(=O)[C@@H](NC(=O)[C@@H](CCCCN)NC(=O)[C@@H](CCCNC(=N)N)NC(=O)[C@H](C)NC(=O)[C@@H](CCCCN)NC(=O)[C@H](CO)NC(=O)[C@@H](CC(C)C)NC(=O)CNC(=O)[C@H](Cc1ccc(O)cc1)NC(=O)[C@H](N)CCCNC(=N)N)C(C)C)C(N)=O` [ASU2009, rYGlSkArkVNQFrkal] (HELM PEPTIDE1{[dR].Y.G.[dL].S.[dK].A.[dR].[dK].V.N.Q.F.[dR].[dK].[dA].[dL].[am]}$$$$V2.0): the “activity (growth reduced by ≥50% vs growth control OD600)” value is “exhibited activity” in series [4] (M7H9, with EDTA (100 μM)); “maintained activity” in series [4] (MHB, with EDTA); “exhibited activity” in series [5] (M7H9, with EDTA (100 μM)); “maintained activity” in series [5] (MHB, with EDTA).

Regarding `CC(C)C[C@@H](NC(=O)CNC(=O)[C@H](CO)NC(=O)[C@@H](CCCCN)NC(=O)[C@@H](CCCNC(=N)N)NC(=O)[C@@H](Cc1c[nH]c2ccccc12)NC(=O)[C@@H](CCCNC(=N)N)NC(=O)[C@H](Cc1ccccc1)NC(=O)[C@H](CC(N)=O)NC(=O)[C@H](Cc1ccc(O)cc1)NC(=O)[C@@H](CCCNC(=N)N)NC(=O)[C@H](C)NC(=O)[C@H](CO)NC(=O)[C@@H](Cc1c[nH]c2ccccc12)NC(=O)[C@@H](CCCNC(=N)N)NC(=O)CNC(=O)[C@@H](N)C(C)C)C(N)=O` [ASU2060, VGrwSArYNFrwrkSGl] (HELM PEPTIDE1{V.G.[dR].[dW].S.A.[dR].Y.N.F.[dR].[dW].[dR].[dK].S.G.[dL].[am]}$$$$V2.0; N-terminus and C-terminus assumed), the IC50 in series [1] (setting [8]) is 13 µM. Also, the MIC in series [2] turned out to be 8 µM (≈ 17.1 µg/mL); in series [7], 4 µM (≈ 8.55 µg/mL). Besides, the “ASU2060 MIC” value in series [6] (E. coli clinical isolate 23), in series [6] (E. coli clinical isolate 36), in series [6] (E. coli clinical isolate 45), in series [6] (E. coli clinical isolate 47), in series [6] (E. coli clinical isolate 97) and in series [6] (E. coli clinical isolate 98) was 8 µM each time.

Values taken from US11752195B2, “Compositions and methods of use of synthetic peptides with Mycobacterium abscessus inhibitory activity” (priority 2021, dated 2023).
